Literature values as cited in US20030021749A1, “Treatment of cancer and other diseases by administration of positron-emitting radiopharmaceuticals” (priority 2000, published 2003).

Conditions: compared with FDG

- concentration in tumor tissues: higher concentration in tumor tissues
SMILES: C[N+](C)(CF)CCO [FCH, fluorine-18 fluorocholine]
- accumulation in normal brain tissue: does not accumulate in normal brain tissue as readily as FDG
